Where “and” joins values, the source holds several entries; their conditions need not be identical. Identical values can stand only once.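 Where inhibition never reached the appropriate level, the endpoint shown equals the highest concentration tested. Otherwise, values were interpolated linearly from a five-concentration, 48-hour dose response in 96-well plates. GI50: concentration for 50% inhibition of growth. The concentration for full growth arrest is given as TGI.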
Assays:
P388/ADR leukemia = test: NCI tumour cell line growth inhibition, 48 h
P388 leukemia = test: NCI tumour cell line growth inhibition, 48 h

O=NN(CCCl)C(=O)NC1CCC(CC2CCC(NC(=O)N(CCCl)N=O)CC2)CC1 (stereo not given)
TGI (P388/ADR leukemia): 5030 nM

CNCCN=c1ccc2c3c1c(O)c1c(O)ccc(=O)c1c3[nH]n2CCNCCO
GI50 (P388/ADR leukemia): 751 nM | TGI (P388/ADR leukemia): 16300 nM and 32900 nM | GI50 (P388 leukemia): < 17.2 nM and 84.5 nM | TGI (P388 leukemia): 44.8 nM and 246 nM
